Patent US20230285372A1, “Pharmaceutical use of (E)-3-arylheterocyclylprop-2-enoic acid derivatives” (MEDCURIUS INC., priority 2020, published 2023)
Where a name gives a salt, the structure may show the parent alone. Read-outs that look alike come from different tables or passages of the source.

Tests used:
[1] = tested on: MPTP-induced Parkinson's disease mouse; test: Pole-climbing test, MPTP-induced Parkinson's disease mouse; type: in vivo; conditions: L-DOPA 10 mg/kg qd intragastric, 40 days; vs model group, p<0.0001
Method: (§1) Male C57 mouse were screened for their motor function by a mouse rod-rotating test, and unqualified ones were excluded from the test. […] MPTP was injected subcutaneously every 4 days in the model group and the drug administration group with a dosage of 25 mg/kg for 40 consecutive days. Each group of I-5 was administered once a day at 8:00 am and 8:00 pm (by intragastric administration), twice in total. […] The intragastric volume was 0.1 ml/10 g body weight, and the behavior test was started 40 days later. […] The storage time of the prepared liquid medicine was not more than 24 hours.
A climbing pole in the pole-climbing test was a rough wooden pole with a diameter of 2 cm and a length of 50 cm. The bottom of the wooden pole was located in the mouse home cage and was vertically oriented. When the mouse was placed on top of the wooden pole, it would naturally descend to the bottom of the wooden pole and reach the base of the pole. […] The mouse should have a pre-acclimation period of 2 days prior to the test, training five times a day. To the test day, the time required for the […] to reach the bottom (incubation period) was taken as an evaluation index to observe the effect of the tested compound on the motion ability of the mouse.

[2] = tested on: MPTP-induced Parkinson's disease mouse; test: Rotarod test, MPTP-induced Parkinson's disease mouse; type: in vivo; conditions: L-DOPA 10 mg/kg qd; vs model group, p<0.0001
Method: as §1
On the first day, the mouse acclimated to a rotating speed of 5 rpm for two times, each time for 5 minutes. On the second day, the rotarod turned at a speed of 10 rpm, the mouse acclimated to the speed for two times, each time for 5 minutes. On the third day, the rotarod turned at a speed of 15 rpm, the mouse acclimated to the speed for two times, each time for 3 minutes. On the fourth day, a behavioral test was started. The rotarod turned at a speed of 15 rpm for a period of 3 minutes. The time mouse spent on the rotarod (fall latency) was taken as an index for evaluation of their motor coordination. The test was repeated three times for each animal, with an interval of 30 minutes to eliminate the interference of exercise fatigue on the motion ability of animals.

α-synuclein protein = α-synuclein protein level in midbrain, Western blot, MPTP mouse; type: in vivo; conditions: L-DOPA 10 mg/kg; p>0.05
Excerpt: (§2) The core pathological change of Parkinson's disease is the loss of dopaminergic neurons. Tyrosine hydroxylase (TH), the rate-limiting enzyme in dopamine synthesis, is the landmark protein of the dopaminergic neurons. Therefore, the decrease in its level indicates the loss of the dopaminergic neurons. A key protein for the occurrence and development of Parkinson's disease is α-synuclein protein, and the abnormal modification (hyperphosphorylation) of this protein can inhibit microtubule polymerization, enhance oxidative stress, and thus accelerate the death of the dopaminergic neurons.
Male C57 mouse were screened for their motor function by a mouse rod-rotating test, and unqualified ones were excluded from the test. […] MPTP was injected subcutaneously every 4 days in the model group and the drug administration group with a dosage of 25 mg/kg for 40 consecutive days. Each group of I-5 was administered once a day at 8:00 am and 8:00 pm (by intragastric administration), twice in total. […]
Tissues from all the animals were collected on the second day after the end of the behavioral experiment. […] The level of tyrosine hydroxylase (TH), a marker protein of dopaminergic neurons, was detected by immumohistochemistry, and α-synuclein protein level and phosphorylation level of the protein were detected by Western blot.

p-synuclein = test: Phosphorylated α-synuclein (p-synuclein) level in midbrain, Western blot, MPTP mouse; type: in vivo; conditions: L-DOPA 10 mg/kg; p>0.05
Excerpt: as §2, §1
Tissues from all the animals were collected on the second day after the end of the behavioral experiment. Hearts from six animals in each group were perfused and fixed with paraformaldehyde for pathological analysis of paraffin sections. Brain tissue of the remaining animals was separated on ice, and brain areas (midbrain) related to Parkinson's disease were collected. After being frozen with liquid nitrogen, they were stored in a refrigerator at −80° C. for protein analysis. The level of tyrosine hydroxylase (TH), a marker protein of dopaminergic neurons, was detected by immumohistochemistry, and α-synuclein protein level and phosphorylation level of the protein were detected by Western blot.

Nrf2 = Nrf2 protein level in the nucleus of HT-22 cells, Western Blot; type: cell-based, mouse; conditions: 1.25 μM and 0.625 μM, 24 hours, vs control group
Excerpt: (§3) As a transcription factor, Nrf2 needs to enter the nucleus and combine with ARE sequence to play a role in transcriptional activation. Therefore, Nrf2 protein level in the nucleus is an important prerequisite for the activation of Nrf2 signaling pathway. NQO-1 and HO-1 are target genes regulated by Nrf2, and the increase of their protein levels is an important sign of activation of the Nrf2 signaling pathway.
(§4) HT-22 cells in logarithmic growth phase were selected, the culture medium was discarded, the cells were digested with 0.25% Trypsin containing EDTA, and cell suspension was made. Cell density was adjusted to 50000/ml with DMEM/F12 medium (containing 10% FBS and 1% double antibody) and it was inoculated to 6-well plate, with 2000 μL/well, the number of cells per well was 100, 000, and the cells were cultured in a cell incubator at 37° C. in an atmosphere containing 5% CO2 for 24 hours. Then, the medium of each well was replaced with new 1980 μL DMEM/F12 medium. […] After 24 hours, the cells were collected, nuclear protein and cytoplasmic protein were extracted, and the level of Nrf2 in the nucleus and the expression of NQO-1 and HO-1 in cytoplasm were detected by Western Blot.

NQO-1 = NQO-1 expression in HT-22 cytoplasm, Western Blot; type: cell-based, mouse; conditions: HT-22 cells, 1.25 μM and 0.625 μM, 24 hours, vs control group
Excerpt: as §3, §4

HO-1 = HO-1 expression in HT-22 cytoplasm, Western Blot; type: cell-based, mouse; conditions: HT-22 cells, 1.25 μM and 0.625 μM, 24 hours, vs control group
Excerpt: as §3, §4

HT-22 cells = test: Protective effect on HT-22 cell damage caused by L-glutamate monosodium salt; type: cell-based, mouse; conditions: Mus musculus, HT-22, 24 h, 15 mM L-glutamate, 24 hours
Method: (§5) Well-proliferated HT-22 cells, derived from mouse hippocampal neuronal cells in logarithmic growth phase, were selected, and they were counted after being subjected to trypsin digestion and dispersion. The cell density was adjusted with DMEM/F12 medium (containing 10% FBS and 1% double antibody). The cells were then inoculated in a 96-well plate at a density of 2,000 cells per well, and cultured in a cell incubator at 37° C. in atmosphere containing 5% CO2 for 24 hours. For the control group and the L-glutamate monosodium salt group (model group), serum-free DMEM/F12 medium was added, and the other wells were added with tested compounds of different concentrations; except that the serum-free DMEM/F12 medium was added to the control group. L-glutamate monosodium salt solution at the final concentration of 15 mM was added to the remaining wells. After 24 hours, the cell viability was detected with a luminescent cell viability assay kit.
as §5, with “group,” for “group.”
as §5, with “2.000” for “2,000”, “group,” for “group.”

With `N[C@@H](Cc1ccc(O)c(O)c1)C(=O)O` [L-DOPA, levodopa, reference compound] the “latency of mouse reaching the base of the pole” value [1] was “significantly shorten the latency”, the “fall latency in the Rotarod test” value [2] was “significantly prolonged” and the “α-synuclein protein level in the midbrain” value (α-synuclein protein) was “no significant effect”. For the same compound, the “p-synuclein protein level in the midbrain” value (p-synuclein) was “no significant effect”.
`COC(=O)/C=C/C(=O)OC` [DMF, dimethyl fumarate, reference compound] was tested, and the “protein level of Nrf2 in the nucleus” value (Nrf2) was “no statistical difference”, the “protein level of NQO-1” value (NQO-1) was “no statistical difference” and the “protein level of HO-1” value (HO-1) was “no statistical difference”. The viability at 0.078 µM (HT-22 cells; Table 1, Conc 0.078 μm, L-Glu alone 27.73 (I-5 32.92), read-out: cell viability) was 37.6%, the viability at 0.156 µM (HT-22 cells; Table 1, Conc 0.156 μm, L-Glu alone 27.73 (I-5 32.92), read-out: cell viability) was 47.5% and the viability at 0.313 µM (HT-22 cells; Table 1, Conc 0.313 μm, L-Glu alone 27.73 (I-5 32.92), read-out: cell viability) was 52.8%. The viability at 0.625 µM (HT-22 cells; Table 1, Conc 0.625 μm, L-Glu alone 27.73 (I-5 32.92), read-out: cell viability) was 60%, the viability at 1.25 µM (HT-22 cells; Table 1, Conc 1.25 μm, L-Glu alone 27.73 (I-5 32.92), read-out: cell viability) was 53.3% and the viability at 2.5 µM (HT-22 cells; Table 1, Conc 2.5 μm, L-Glu alone 27.73 (I-5 32.92), read-out: cell viability) was 63.6%. It also gave a viability at 10 µM (HT-22 cells; Table 1, Conc 10 μm, L-Glu alone 27.73 (I-5 32.92), read-out: cell viability) of 70.2%, a viability at 0.078 µM (HT-22 cells; Table 2, Conc 0.078 μM, L-Glu alone 27.83, read-out: Visibility %) of 34.3% and a viability at 0.156 µM (HT-22 cells; Table 2, Conc 0.156 μM, L-Glu alone 27.83, read-out: Visibility %) of 34.9%.
